Where two headings read alike, the source gives them in different places.
Experiments:
[1] = test system: lipid peroxide in rat brain homogenate; assay: Antioxidative action on lipids in vitro (lipid peroxide activity in rat brain homogenate, thiobarbituric acid method); assay type: biochemical; settings: 500 μM cysteine, 5 μM ferrous sulfate, 100 mM KCl, 30 minutes at 37° C., malondialdehyde, read-out: 50% inhibitory concentration of anti-lipid peroxide action in vitro (IC50)
Protocol: (§1) The antioxidative action on lipids in vitro of the compounds according to the present invention was evaluated in accordance with the method of Malvy et al. (Malvy C. et al.,) described in Biochemical and Biophysical Research Communications, 1980, vol. 95, pp. 734 to 737,) by measuring the lipid peroxide activity in a rat brain homogenate. Namely, the rat brain was removed followed by the addition of five volumes of an aqueous solution of phosphate buffered saline (pH 7.4) (hereinafter, abbreviated as PBS) to the brain while cooling with water, homogenizing with a Teflon homogenizer, and centrifuging for 20 minutes at 10,000 g to collect the supernatant as a brain homogenate. 500 μM cysteine, 5 μM ferrous sulfate, and 100 mM KCl were added to the resulting brain homogenate followed by incubating for 30 minutes at 37° C. and measuring the malondialdehyde that formed due to decomposition of lipid peroxide using the thiobarbituric acid method. The 50% inhibitory concentrations (hereinafter, abbreviated as IC50) of the compounds according to the present invention were then determined from the measured values.

[2] = test system: lipid peroxide in homogenates of brain, heart and kidneys; assay: Tissue migration: antioxidative action on lipids ex vivo in tissue homogenates after intraperitoneal administration; settings: Rattus norvegicus, ip, 0.5 h, male SD rats, 100 mg/kg intraperitoneally, 30 minutes after administration
Protocol: as §1
Tissue migration of the compounds according to the present invention was evaluated by measuring the antioxidative action on lipids ex vivo. A test compound dissolved or suspended in an aqueous physiological saline solution or aqueous physiological saline solution containing 1% polyethylene hardened castor oil (Nikko Chemicals: Nikkol HCO-60) was intraperitoneally administered to male SD rats (age: 6 weeks) (purchased from Japan SLC) in groups of 3 animals each at a dose of 100 mg/kg. The animals were sacrificed by exsanguination by severing the carotid artery 30 minutes after administration followed by removing the brain, heart and kidneys. The lipid peroxide activity of homogenates of each tissue was measured using the method described in Example 3. The inhibition rates of the test compounds in each tissue were determined from the amounts of lipid peroxide formed in a control group (physiological saline dose group) and test compound groups.

[3] = test system: mice administered ferrous chloride into the spinal subarachnoid cavity; assay: Antioxidative action in vivo: abnormal behavior and mortality after ferrous chloride into the spinal subarachnoid cavity; parameters: species or system mouse; settings: male ICR mice, 30 minutes before ferrous chloride, score after 60 minutes
Protocol: The antioxidative action in vivo of the compounds according to the present invention was evaluated according to the method described in the Journal of Medical Chemistry (J. Med. Chem., 1997, vol. 40, pp. 559 to 573) based on the inhibitory effects on abnormal behavior and mortality rate following administration of ferrous chloride into the spinal subarachnoid cavity of mice. Male S1c:ICR mice (age: 5 weeks) (purchased from Japan SLC) were used in groups of 3 to 7 animals each, and were administered 5 μl of aqueous physiological saline solution containing 50 mM ferrous chloride into the spinal column between the 5th and 6th lumbar vertebra. […] The test compounds were dissolved or suspended in an aqueous physiological saline solution or an aqueous physiological saline solution containing 1% polyethylene hardened castor oil (manufactured by Nikko Chemicals CO., LTD. under the name of NIKKOL HCO-60), and administered intraperitoneally or orally 30 minutes before the administration of ferrous chloride. The 50% inhibitory dose (hereinafter, abbreviated as ID50) of each test compound was determined from the score of a control group (physiological saline treated group) and the score of each test compound treated group.

[4] = test system: lipid peroxides in retina homogenate; assay: Retina migration: formation of lipid peroxides in retina ex vivo after oral administration; parameters: species or system rat; settings: male SD rats, retinas removed 30 minutes later, auto-oxidized 1 hour at 37° C.
Protocol: The retina migration of the compounds according to the present invention was evaluated. The test compounds dissolved or suspended in 0.1 N aqueous hydrochloric acid solution or 1% polyethylene hardened castor oil (Nikkol HCO-60) solution were orally administered to male SD rats (age: 6 weeks) in groups of three animals each followed by removing both eyes 30 minutes later and separating the retinas while cooling with ice. The retinas were homogenized with a Polytron Microhomogenizer (NS-310E: manufactured by Niti-On Medical and Physical Instruments) in 0.1 M Tris-HCl buffer (pH 7.4) while cooling with ice to prepare 5% homogenates. The homogenates were then auto-oxidized for 1 hour at 37° C., and the amounts of lipid peroxide that formed were quantified using the thiobarbituric acid method (Masugi, et al., Vitamin, 51, 21 to 29, 1977).

[5] = target: T1, 5-lipoxygenase (5-LO) (Homo sapiens, UniProt P09917); assay: 5-LO inhibitory activity (leucotriene B4 formation in human peripheral blood mononuclear cells, A23187); assay type: cell-based; settings: 30 μM A23187, read-out: Lipoxygenase inhibitory action 50% inhibitory concentration (IC50 μm) 5-LO
T1 construct: human peripheral blood mononuclear cells; endogenous in cells; host or cells: human peripheral blood mononuclear cells
T1 sequence (P09917 1-674): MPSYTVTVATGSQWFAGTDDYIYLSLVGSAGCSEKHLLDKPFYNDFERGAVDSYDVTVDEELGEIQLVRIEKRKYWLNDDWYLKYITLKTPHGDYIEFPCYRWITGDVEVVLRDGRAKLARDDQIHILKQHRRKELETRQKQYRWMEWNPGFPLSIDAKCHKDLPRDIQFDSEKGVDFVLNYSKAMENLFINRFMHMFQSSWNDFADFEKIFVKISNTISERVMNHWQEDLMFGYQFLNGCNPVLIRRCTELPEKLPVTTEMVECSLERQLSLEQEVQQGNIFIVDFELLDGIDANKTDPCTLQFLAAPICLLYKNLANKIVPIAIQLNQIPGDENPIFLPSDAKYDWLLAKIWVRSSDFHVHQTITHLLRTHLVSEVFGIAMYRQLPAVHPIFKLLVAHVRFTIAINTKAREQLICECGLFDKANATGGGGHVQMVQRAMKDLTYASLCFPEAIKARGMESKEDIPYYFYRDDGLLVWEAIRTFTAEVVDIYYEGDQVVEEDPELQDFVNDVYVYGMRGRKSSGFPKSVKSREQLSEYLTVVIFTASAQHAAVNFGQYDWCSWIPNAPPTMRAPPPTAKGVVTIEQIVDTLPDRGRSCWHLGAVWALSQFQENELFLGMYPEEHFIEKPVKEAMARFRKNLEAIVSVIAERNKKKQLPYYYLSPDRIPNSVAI
Protocol: 5-LO inhibitory activity was measured using a variation of the method of Carter et al. (Carter G. W. et al., J. Pharmacol. Exp. Ther., 256, 929 to 937, 1991). Namely, after pre-incubating (37° C., 15 minutes) in Hank's solution human peripheral blood mononuclear cells and a test compound dissolved in DMSO (final concentration: 1%), 30 μM A23187 was added and the resulting solution was additionally incubated (37° C., 30 minutes). The resulting leucotriene B4 that formed was quantified by enzyme immunoassay, and the 50% formation inhibitory concentration (μM) of the test compound with respect to 5-LO was calculated from that value.

[6] = target: T2, 15-lipoxygenase (15-LO) (Oryctolagus cuniculus, UniProt P12530); assay: 15-LO inhibitory activity (15-LO from rabbit reticulocytes, linoleic acid, 15-HETE formation); assay type: biochemical; settings: 256 μM linoleic acid, 4° C., read-out: Lipoxygenase inhibitory action 50% inhibitory concentration (IC50 μm) 15-LO
T2 construct: 15-LO obtained from rabbit reticulocytes; from tissue; host or cells: rabbit reticulocytes
T2 sequence (P12530 1-663): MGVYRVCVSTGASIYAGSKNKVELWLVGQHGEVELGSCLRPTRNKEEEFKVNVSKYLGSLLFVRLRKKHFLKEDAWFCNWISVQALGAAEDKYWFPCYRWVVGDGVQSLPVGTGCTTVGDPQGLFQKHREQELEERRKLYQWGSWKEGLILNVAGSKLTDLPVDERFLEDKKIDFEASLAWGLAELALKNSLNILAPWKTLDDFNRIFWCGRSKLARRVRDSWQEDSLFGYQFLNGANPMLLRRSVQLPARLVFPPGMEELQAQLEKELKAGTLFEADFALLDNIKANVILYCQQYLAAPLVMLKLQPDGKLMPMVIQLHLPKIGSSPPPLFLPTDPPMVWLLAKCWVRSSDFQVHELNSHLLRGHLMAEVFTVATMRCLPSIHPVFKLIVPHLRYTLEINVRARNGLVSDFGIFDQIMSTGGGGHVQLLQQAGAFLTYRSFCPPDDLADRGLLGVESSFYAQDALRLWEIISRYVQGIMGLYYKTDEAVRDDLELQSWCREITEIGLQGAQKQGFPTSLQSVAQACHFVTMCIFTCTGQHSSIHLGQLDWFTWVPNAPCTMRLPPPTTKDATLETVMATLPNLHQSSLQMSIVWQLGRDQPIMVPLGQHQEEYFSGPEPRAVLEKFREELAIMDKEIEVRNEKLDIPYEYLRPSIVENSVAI
Protocol: 15-LO inhibitory activity was measured using a variation of the method of Auerbach et al. (Auerbach B. J. et al., Anal. Biochem., 201, 375 to 380, 1992). Namely, after pre-incubating (4° C., 15 minutes) in phosphate buffer (pH 7.4) 15-LO obtained from rabbit reticulocytes and a test compound dissolved in DMSO (final concentration: 1%), 256 μM linoleic acid was added and the resulting solution was additionally incubated (4° C., 10 minutes). The resulting 15-HETE that formed was quantified by spectrophotometry (OD660 nm), and the 50% formation inhibitory concentration (μM) of the test compound with respect to 15-LO was calculated from that value.

[7] = brain, read-out: Inhibition rate of ex vivo anti-lipid peroxide action (%) Brain
[8] = heart, read-out: Inhibition rate of ex vivo anti-lipid peroxide action (%) Heart
[9] = kidney, read-out: Inhibition rate of ex vivo anti-lipid peroxide action (%) Kidney

| SMILES | IC50 [1] [nM] | inhibition at 100 mg/kg [2, 7] [%] | inhibition at 100 mg/kg [2, 8] [%] | inhibition at 100 mg/kg [2, 9] [%] | Antioxidative action in vivo 50% inhibitory dose (ID50 mg/kg) Intraperitoneal administration [3] [mg/kg] | Antioxidative action in vivo 50% inhibitory dose (ID50 mg/kg) Oral administration [3] [mg/kg] | Inhibitory effect on formation of lipid peroxides in retina ex vivo 30% inhibitory concentration (ID30 mg/kg, oral administration) [4] [mg/kg] | IC50 [5] [nM] | IC50 [6] [nM] |
| --- | --- | --- | --- | --- | --- | --- | --- | --- | --- |
| Cc1c(C)c2c(c(C)c1N)CC(C)(C(=O)Nc1ccc(-c3ccn[nH]3)cc1)O2 (stereo not drawn) [Compound 37] | 800 | 95 | 87 | 89 | 12 | 27 | 5.2 | 230 | 2060 |
| Cc1c(C)c2c(c(C)c1O)CCC(C)(OC=Nc1ccc(-n3ccnc3)cc1)O2 (stereo not drawn) [Control drug 2, reference compound] | 230 | 45 | 57 | 84 | 20 | 53 |  |  |  |
| Cc1c(C)c2c(c(C)c1N)CC(C)(C(=O)Nc1ccc(-n3ccnc3)cc1)O2 (racemic) [Compound 1, (±)-(5-amino-2,4,6,7-tetramethyldihydrobenzofuran-2-yl)-N-[4-(imidazol-1-yl)phenyl]carboxamide] |  | 83 | 80 | 87 | 6.8 | 9.7 | 16 |  |  |
| Cc1c(C)c2c(c(C)c1O)CC(C)(OC=Nc1ccc(-n3ccnc3)cc1)O2 (stereo not drawn) [Control drug 1, reference compound] | 230 | 68 | 59 | 75 | >30 | >30 |  |  |  |
